Reference: patent publication US20240251802A1, “USE OF SATIVENE, AND RECOMBINANT BIOCONTROL FUNGUS AND MUSCARDINE CADAVER AND USE THEREOF” (priority 2022, published 2024)
“Also recorded” adds a separate entry of the source.

Assays:
Format in all cases: in vivo
Drosophila larvae = experiment: Two-way choice method, attraction of Drosophila larvae; settings: FIG. 2A/2B; for concentration dependence of attraction on Drosophila larvae: content gradients 10^−5 g to 10^−11 g
Protocol: Two-way choice method was used to detect the attraction of Galleria mellonella muscardine cadavers to Drosophila healthy larvae, with the device shown in FIG. 1A. New freezing-killed Galleria mellonella larvae were kept at a room temperature for 20 min(control) and one of the resulting Galleria mellonella muscardine cadaver was placed on both sides of a 9 cm petri dish (containing 2% water agar), and then 20 healthy 3-instar Canton-S Drosophila larvae were placed in the middle part of the petri dish. After 10 min, photographing was conducted to record the selection of Drosophila larvae, and a Response index was calculated [the Response index=(the number of Drosophila larvae selecting Galleria mellonella muscardine cadaver−the number of Drosophila larvae selecting control Galleria mellonella larvae)/the total number of Drosophila larvae (20)]. The experiment was repeated 6 times.
(§1) The muscardine cadaver was replaced by circular filter paper with a 5 mm diameter (containing 10 μl of different concentrations solutions of longifolene or sativene), and a control was a filter paper containing 10 μl of n-hexane solvent. Similarly, the method for detecting the attraction of muscardine cadavers to Galleria mellonella larvae and mosquitoes adults was also used to analyze the attraction of longifolene and sativene to these two kinds of insects. […]
(§2) According to the above device, the attraction of transgenic strain Mr-Tps and WT strain grown on PDA and on fermentation medium to mosquitoes was compared. The mycelia of transgenic strain Mr-Tps and WT strain grown on PDA and on fermentation medium for 14 d and with a fresh weight of 0.3 g were placed on both sides of the device, respectively, and a preference percentage was calculated after a period of treatment, where the preference percentage=the number of insects selecting mycelia of transgenic strain and WT strain/the total number of insects.

Aedes albopictus adults = experiment: Two-way choice method, attraction of adult mosquitoes; settings: for content with the strongest attraction on mosquitoes: content gradients 10^−5 g to 10^−9 g on cotton balls vs n-hexane control, FIG. 2C/2D
Protocol: The detection on attraction of muscardine cadavers to mosquito (Aedes albopictus) adults was conducted according to a relevant literature (Robinson Ailic, Busula Annette O, Voets Mirjam A, Beshir Khalid B, Caulfield John C. Powers Stephen J, Verhulst Niels O, Winskill Peter, Muwanguzi Julian, Birkett Michael A, Smallegange Renate C, Masiga Daniel K, Mukabana W Richard, Sauerwein Robert W, Sutherland Colin J, Bousema Teun, Pickett John A, Takken Willem, Logan James G, de Boer Jetske G. Plasmodium-associated changes in human odor attract mosquitoes. Proc Natl Acad Sci USA 2018; 115: 4215), and the device used was shown in FIG. 1D. One of freeze-killed Galleria mellonella larvae (control) and one of the resulting Galleria mellonella muscardine cadaver were placed in a 3.5 cm ampoule, and placed in cylinders on both sides of the device. 10 female mosquitoes without blood meal 3 d to 5 d after eclosion were placed in the middle of a tube 1. Openings at both ends of the tube 1 were covered with gauze, and the tube was placed in a refrigerator at 4° C. for 3 min to reduce mosquito activities. Then the tube 1 was connected to tubes 2 and 3. The whole device was placed in a dark incubator at 26° C., and the selection of mosquitoes was recorded after 10 h. A Response index was calculated [the Response index=the number of mosquitoes selecting Galleria mellonella muscardine cadavers−the number of mosquitoes selecting freeze-killed Galleria mellonella larvae)/the total number of mosquitoes].
as §1, with “insects. In the Galleria mellonella attractive device, the muscardine cadaver was replaced by cotton balls with about 2 cm diameter (containing 100 μl different concentrations solutions of longifolene or sativene), and a control was cotton balls containing 100 μl of n-hexane solvent.” for “insects.”
as §2

[1] = system: Galleria mellonella larvae; experiment: Improved Two-way choice method, attraction of Galleria mellonella larvae; settings: cotton balls with 100 μl solution vs n-hexane control, FIG. 3
From the text: An improved Two-way choice method was used to detect the attraction of Galleria mellonella muscardine cadavers to Galleria mellonella healthy larvae, with the device shown in FIG. 1B. Three freeze-killed Galleria mellonella larvae (control) and three the resulting Galleria mellonella muscardine cadavers were placed in 9 cm petri dishes, and the petri dishes were placed diagonally in the device; 40 healthy Galleria mellonella larvae were released at the center point of the device, and placed at room temperature in dark. The selection of healthy Galleria mellonella larvae was recorded after 1 h. A Response index was calculated [the Response index=the number of Galleria mellonella larvae selecting Galleria mellonella muscardine cadavers−the number of Galleria mellonella larvae selecting freeze-killed Galleria mellonella larvae)/the total number of Galleria mellonella larvae]. The experiment was repeated 6 times.
as §1

Row | SMILES | lowest level to which Drosophila larvae respond (Drosophila larvae; content gradients 10^−5 g to 10^−11 g on filter paper vs n-hexane control) | concentration dependence of attraction on Drosophila larvae (Drosophila larvae) | content with the strongest attraction on mosquitoes (Aedes albopictus adults) | concentration dependence of attraction on mosquitoes (Aedes albopictus adults; content gradients 10^−5 g to 10^−9 g, FIG. 2D) | attraction of Galleria mellonella larvae [1] | response of mosquitoes at 10^−9 g (Aedes albopictus adults; 10^−9 g, FIG. 2C)
1 | C=C1C2CCC3C2C(C(C)C)CCC13C (stereo not drawn) [sativene] | ≤ 10^−11 g | a higher concentration of the sativene has a stronger attracting effect; also recorded: a higher concentration of the longifolene and sativene had a stronger attraction | 10^−5 g | a higher concentration of the sativene has a stronger attracting effect; also recorded: a higher concentration of the sativene had a stronger attraction | has insect attracting properties; also recorded: could also attract | 
2 | C=C1[C@H]2CC[C@@H]3[C@H]2C(C)(C)CCC[C@]13C [longifolene] |  | a higher concentration of the longifolene and sativene had a stronger attraction | 10^−6 g |  | could also attract | little response
